Experimental data from ChEMBL document CHEMBL1133234, “Synthesis and biological activity of 4'-methoxy derivatives of abscisic acid” (2000).
Calls of active or inactive are those of the source. No cut-off for these calls is given here.

Assays:
Format in all cases: functional
Lepidium sativum [1] = experiment: Compound was tested for inhibition of cress germination at 0.1 uM
[2] = tested on: Hordeum vulgare subsp. vulgare; experiment: Compound was tested for inhibition of GA-inducible alpha-amylase induction in barley aleurone protoplasts at 0.1 uM
Lepidium sativum [3] = experiment: Compound was tested for inhibition of cress germination at 1 uM
Lepidium sativum [4] = experiment: Compound was tested for inhibition of cress germination at 10 uM
[5] = tested on: Hordeum vulgare subsp. vulgare; experiment: Compound was tested for inhibition of GA-inducible alpha-amylase induction in barley aleurone protoplasts at 100 uM
Lepidium sativum [6] = experiment: Compound was tested for inhibition of cress germination at 100 uM
[7] = tested on: Hordeum vulgare subsp. vulgare; experiment: Compound was tested for inhibition of GA3-induced alpha-amylase induction and induction of the accumulation of dehydrin in unstressed barley seeds at 10 uM; Active
[8] = tested on: Hordeum vulgare subsp. vulgare; experiment: Compound was tested for inhibition of GA-inducible alpha-amylase induction in barley aleurone protoplasts at 10 uM
[9] = tested on: Hordeum vulgare subsp. vulgare; experiment: Compound was tested for inhibition of GA-inducible alpha-amylase induction in barley aleurone protoplasts at 1 uM
[10] = tested on: Hordeum vulgare subsp. vulgare; experiment: Compound was tested for inhibition of GA3-induced alpha-amylase induction and induction of the accumulation of dehydrin in unstressed barley seeds; Active

Row | inhibition [2] [%] | inhibition [5] [%] | Activity [7] | inhibition [8] [%] | inhibition [9] [%] | Activity [10] | Compound | inhibition at 0.1 µM (Lepidium sativum [1]) [%] | inhibition at 1 µM (Lepidium sativum [3]) [%] | inhibition at 10 µM (Lepidium sativum [4]) [%] | inhibition at 100 µM (Lepidium sativum [6]) [%]
1 | 50 | 100 | Active | 100 | 100 | – | CC1=CC(=O)CC(C)(C)[C@@]1(O)/C=C/C(C)=C\C(=O)O (racemic) [(+)-ABSCISIC ACID] | ~60 | ~80 | ~100 | ~100
2 | 20 | 100 | – | 90 | 50 | Active | CO[C@H]1C=C(C)[C@](O)(/C=C/C(C)=C\C(=O)O)C(C)(C)C1 | ~20 | ~40 | ~95 | ~100
3 | 60 | 100 | – | 100 | 90 | Active | CO[C@@H]1C=C(C)[C@](O)(/C=C/C(C)=C\C(=O)O)C(C)(C)C1 | ~40 | ~60 | ~95 | ~100
